Results as given in publication PMC11729419, “Thiol-Reactive or Redox-Active: Revising a Repurposing Screen Led to a New Invalidation Pipeline and Identified a True Noncovalent Inhibitor Against Papain-like Protease from SARS-CoV-2” (ACS Pharmacology & Translational Science, 2024).
Read-outs that look alike come from different tables or passages of the source.

Assays:
[1] = Table S1, 20 µM, DTT buffer
SARS-CoV-2 PLpro-NAB = SARS-CoV-2 PLpro-NAB (Severe acute respiratory syndrome coronavirus 2, UniProt P0DTD1); assay: biochemical; conditions: for Inhibition in L-cysteine buffer versus DTT buffer (dose-response): 1 mM L-cysteine vs 1 mM DTT; for Inhibitory activity on retest in 1 mM L-cysteine: 50% inhibition at 20 μM
SARS-CoV-2 Mpro = SARS-CoV-2 Mpro (Severe acute respiratory syndrome coronavirus 2, UniProt P0DTD1); format: biochemical; conditions: 10 μM; 1 mM DTT
SARS-CoV-2 PLpro = SARS-CoV-2 PLpro (Severe acute respiratory syndrome coronavirus 2, UniProt P0DTD1); format: biochemical; conditions: dose-response, ISG15 substrate
[2] = Table S1, DTT buffer, average (SD)
[3] = Table S1, L-cysteine buffer, average (SD)
[4] = Table S1, DTT buffer, read-out: HP PLpro-NAB SARS-CoV-2 IC50 [µM] triplicates DTT BUFFER
[5] = Table S1, L-cysteine buffer, read-out: HP PLpro-NAB SARS-CoV-2 IC50 [µM] duplicates L-CYS BUFFER

Question: With `C[C@H]1COC2=C1C(=O)C(=O)c1c2ccc2c1CCCC2(C)C` [Cryptotanshinone] as the compound, how does the “Interference inhibition [%] 20 µM based on product interference DTT BUFFER” value (shortened to “Interference inhibition [%] 20 µM based”) [1] read?
Answer: 3.37%

Question: Which “Interference inhibition [%] 20 µM based” value [1] does the source give for Chicago-Sky-Blue-6b here?
Answer: -5.59%

Question: With `O=c1cc(-c2cc(O)c(O)c(O)c2)oc2cc(O)c(O)c(O)c12` [DOM_SIM_710, 3′,4’,5′,5,6,7-hexahydroxyflavone] as the compound, how does the “Inhibition in L-cysteine buffer versus DTT buffer (dose-response)” value (SARS-CoV-2 PLpro-NAB) read?
Answer: increased inhibition

Question: What about the “Inhibitory activity on retest in 1 mM L-cysteine” value (SARS-CoV-2 PLpro-NAB) of the same compound?
Answer: retained their inhibitory activity

Question: And the inhibition at 20 µM (SARS-CoV-2 PLpro-NAB; hit confirmation, 20 μM, 1 mM DTT buffer, average (SD), 20 μM PR619 = 100%, DMSO = 0%, read-out: HC PLpro-NAB inhibition [%] 20 μM triplicates 1 mM DTT buffer)?
Answer: 65%

Question: And the inhibition at 20 µM (SARS-CoV-2 PLpro-NAB; hit profiling, 20 μM, 1 mM L-cys buffer, average (SD), 20 μM PR619 = 100%, read-out: HP PLpro-NAB inhibition [%] 20 μM triplicates 1 mM L-cys buffer)?
Answer: 155%

Question: What about the IC50 (SARS-CoV-2 PLpro-NAB; hit profiling, 1 mM DTT buffer) of the same compound?
Answer: > 20 µM

Question: And the “Interference inhibition [%] 20 µM based” value [1]?
Answer: 10.43%

Question: And the “Preference PLpro over Mpro” value (SARS-CoV-2 Mpro)?
Answer: preferential inhibition of PLpro over Mpro

Question: What about the “Potency against PLpro compared with PLpro-NAB” value (SARS-CoV-2 PLpro) of the same compound?
Answer: higher potency against PLpro compared with PLpro-NAB

Question: Which “Interference inhibition [%] 20 µM based” value [1] does the source give for Ryuvidine here?
Answer: -2.15%

Question: With Cyanocobalamin as the compound, how does the “HC PLpro-NAB SARS-CoV-2 inhibition [%] 20 µM triplicates DTT BUFFER” value (SARS-CoV-2 PLpro-NAB; [2]) read?
Answer: 141.27 (3.32) %

Question: And the “HP PLpro-NAB SARS-CoV-2 inhibition [%] 20 µM triplicates L-CYS BUFFER” value (SARS-CoV-2 PLpro-NAB; [3])?
Answer: 32.29 (7.95) %

Question: And the IC50 (SARS-CoV-2 PLpro-NAB; [4])?
Answer: 2.9 µM

Question: And the IC50 (SARS-CoV-2 PLpro-NAB; [5])?
Answer: > 20 µM

Question: What about the “Interference inhibition [%] 20 µM based” value [1] of the same compound?
Answer: 4.81%

Question: For Bacitracin [Bacitracin (Zinc)], which “Interference inhibition [%] 20 µM based” value [1] is on record?
Answer: -1.67%

Question: Which “Interference inhibition [%] 20 µM based” value [1] does the source give for `Cc1nc2c(=O)n(C)c(=O)nc-2n(C)n1` [3-Methyl Toxoflavin] here?
Answer: 10.44%

Question: For `C[n+]1c2cc(N)ccc2cc2ccc(N)cc21.[Cl-]` [Acriflavinium Hydrochloride], which “Interference inhibition [%] 20 µM based” value [1] is on record?
Answer: -17.48%

Question: Which “Interference inhibition [%] 20 µM based” value ([1]; listed as Walrycin B (EOS)) does the source give for Walrycin B here?
Answer: 8.01%

Question: What about the “Interference inhibition [%] 20 µM based” value ([1]; listed as Walrycin B (FhG)) of the same compound?
Answer: 4.84%

Question: With `N#CSc1cc(SC#N)c(N)nc1N` [PR-619] as the compound, how does the “Interference inhibition [%] 20 µM based” value [1] read?
Answer: -14.28%

Question: What about the “Inhibition of Mpro” value (SARS-CoV-2 Mpro) of the same compound?
Answer: inhibition of both proteases from SARS-CoV-2

Question: With `Cc1c(S(=O)(=O)O)oc2c1C(=O)C(=O)c1c-2ccc2c1CCCC2(C)C` [Sodium-Tanshinone-ii-A-Sulfonate] as the compound, how does the inhibition at 20 µM (SARS-CoV-2 PLpro-NAB; read-out: HP PLpro-NAB SARS-CoV-2 inhibition [%] 20 µM triplicates L-CYS BUFFER) read?
Answer: -51.9%

Question: What about the “Interference inhibition [%] 20 µM based” value [1] of the same compound?
Answer: -7.60%

Question: Which “Interference inhibition [%] 20 µM based” value [1] does the source give for `Oc1c(Cl)cc(Cl)c(Cl)c1Cc1c(O)c(Cl)cc(Cl)c1Cl` [Hexachlorophene] here?
Answer: 15.14%

Question: With `CN(C)CCNc1nc2cc(O)ccc2c2c1C(=O)c1ccccc1-2.Cl.Cl` [TAS-103 (dihydrochloride)] as the compound, how does the “Interference inhibition [%] 20 µM based” value [1] read?
Answer: 1.87%

Question: For `O=C1C(Cl)=C(NCCN2CCOCC2)C(=O)c2ncccc21` [NSC-663284 (FhG)], which “HC PLpro-NAB SARS-CoV-2 inhibition [%] 20 µM triplicates DTT BUFFER” value (SARS-CoV-2 PLpro-NAB; [2]) is on record?
Answer: 150.90 (0.34) %

Question: And the “HC PLpro-NAB SARS-CoV-2 inhibition [%] 20 µM triplicates DTT BUFFER” value (SARS-CoV-2 PLpro-NAB; Table S1, DTT buffer, average (SD), listed as NSC 663284 (EOS))?
Answer: 168.59 (3.49) %

Question: And the “HP PLpro-NAB SARS-CoV-2 inhibition [%] 20 µM triplicates L-CYS BUFFER” value (SARS-CoV-2 PLpro-NAB; [3])?
Answer: 7.56 (11.27) %

Question: What about the “HP PLpro-NAB SARS-CoV-2 inhibition [%] 20 µM triplicates L-CYS BUFFER” value (SARS-CoV-2 PLpro-NAB; Table S1, L-cysteine buffer, average (SD), listed as NSC 663284 (EOS)) of the same compound?
Answer: -38.39 (8.32) %

Question: And the IC50 (SARS-CoV-2 PLpro-NAB; Table S1, DTT buffer, listed as NSC 663284 (EOS), read-out: HP PLpro-NAB SARS-CoV-2 IC50 [µM] triplicates DTT BUFFER)?
Answer: 2.15 µM

Question: What about the IC50 (SARS-CoV-2 PLpro-NAB; [4]) of the same compound?
Answer: 0.22 µM

Question: And the IC50 (SARS-CoV-2 PLpro-NAB; [5])?
Answer: > 20 µM

Question: And the “Interference inhibition [%] 20 µM based” value [1]?
Answer: -0.99%

Question: What about the “Interference inhibition [%] 20 µM based” value ([1]; listed as NSC 663284 (EOS)) of the same compound?
Answer: 14.95%

Question: Which “Interference inhibition [%] 20 µM based” value [1] does the source give for `Nc1ccc(O)c2ncccc12` [PD119507] here?
Answer: 3.43%

Question: Which “Interference inhibition [%] 20 µM based” value [1] does the source give for `CC1(C)CCC2=C(O1)c1ccccc1C(=O)C2=O` [Beta-Lapachone] here?
Answer: 13.40%

Question: With `O=C1C=CC(=O)c2c(O)cccc21` [Juglone] as the compound, how does the “Interference inhibition [%] 20 µM based” value [1] read?
Answer: 12.84%

Question: With `COCCn1c2c([n+](Cc3cnccn3)c1C)C(=O)c1ccccc1C2=O` [YM-155] as the compound, how does the “Interference inhibition [%] 20 µM based” value [1] read?
Answer: -0.69%

Question: Which “Interference inhibition [%] 20 µM based” value [1] does the source give for `COc1cccc2c(NCc3ccccc3)nc(-n3c(N)nc4ccccc43)nc12` [ML240] here?
Answer: 16.72%

Question: For `O=C(O)c1cc(O)c2c(c1)[C@H]([C@H]1c3cc(C(=O)O)cc(O)c3C(=O)c3c(O[C@@H]4O[C@H](CO)[C@@H](O)[C@H](O)[C@H]4O)cccc31)c1cccc(O[C@@H]3O[C@H](CO)[C@@H](O)[C@H](O)[C@H]3O)c1C2=O` [sennoside A], which “Inhibition in L-cysteine buffer versus DTT buffer (dose-response)” value (SARS-CoV-2 PLpro-NAB) is on record?
Answer: lost its inhibitory potency

Question: And the “Inhibitory activity on retest in 1 mM L-cysteine” value (SARS-CoV-2 PLpro-NAB)?
Answer: retained their inhibitory activity

Question: And the “Interference inhibition [%] 20 µM based” value [1]?
Answer: 1.69%

Question: What about the “Inhibition of Mpro” value (SARS-CoV-2 Mpro) of the same compound?
Answer: inhibition of both proteases from SARS-CoV-2
